Source: PMC9412534, “Diindolylmethane Derivatives: New Selective Blockers for T-Type Calcium Channels” (Membranes, 2022)
“Also recorded” adds a separate entry of the source.

Legend:
CaV2.2 = target: T1, CaV2.2 (Homo sapiens, UniProt Q00975); assay: HVA N-type calcium channel FLIPR assay in SH-SY5Y cells; type: cell-based; conditions: 10 µM nifedipine present, n = 3, read-out: IC50 CaV2.2 (HVA CaVs)
T1 construct: endogenous in cells; host or cells: SH-SY5Y human neuroblastoma cells
Experimental: (§1) The human embryonic kidney 293 (HEK 293) cell lines (from Emmanuel Bourinet, Montpellier, France) stably expressing CaV3.2 or CaV3.3 were cultured under 5% carbon dioxide at 37 °C in Dulbecco’s Modified Eagle Medium (DMEM) Glutamax (Gibco, Life Technologies, Carlsbad, CA, USA) supplemented with 10% (v/v) fetal bovine serum (FBS), 100 U/mL penicillin, 100 μg/mL streptomycin (Gibco, Life Technologies, Carlsbad, CA, USA), and 750 μg/mL geneticin (G418) (Gibco, Life Technologies). The Chinese Hamster Ovary (CHO) cell lines (Emmanuel Bourinet, Montpellier, France) expressing CaV3.1 were cultured under 5% carbon dioxide at 37 °C in Alpha Minimum Essential Media (MEM) Glutamax (Gibco, Life Technologies), supplemented with 10% (v/v) fetal bovine serum (FBS) and 300 μg/mL geneticin (G418) (Gibco, Life Technologies). The human neuroblastoma SH-SY5Y cells (Victor Diaz, Goettingen, Germany) were cultured under 5% carbon dioxide at 37 °C in RPMI 1640 antibiotic-free medium (Invitrogen, Carlsbad, CA, USA), supplemented with 15% FBS and 2 mM GlutaMAX™ (Invitrogen). D-PBS (Gibco, Life Technologies) was used to wash the cells, and 0.25% Trypsin-EDTA (Gibco, Life Technologies) was used to detach cells from the flask surface. They were split in a ratio of 1:5 (ideally 1000 cells/cm^2) when they reached 70–80% confluence (every 2–3 days). Transiently transfected CaV3.1 HEK293 T cells were used in FLIPR Assays. HEK 293 T cells were cultured under 5% carbon dioxide at 37 °C in DMEM supplemented with 10% (v/v) FBS. D-PBS was used to wash the cells, and 0.25% Trypsin-EDTA was used to detach cells from the flask surface. The cells were split and seeded at 6 million cells per T175 flask, to reach 70–80% confluence after 24 h. The next day, 12 μg DNA of human CaV3.1 was incubated in 900 μL serum-free DMEM with 36 μL FuGENE HD transfection reagent (Promega Corporation, Madison, WI, USA) (1:3 DNA/Fugene ratio) for 20 min, and then the mixture was added into the cell flask slowly, drop by drop. After the transfection, the cells were cultured under 5% carbon dioxide at 37 °C for 24 h and then moved to a 28 °C incubator.
(§2) SH-SY5Y cells were seeded into 384-well black wall clear bottom plates at a density of 15,000 cells per well, resulting in 90–95% confluence after 24 h. The media were then removed from the wells and replaced with 20 μL of 10% calcium 4 dye (Molecular Devices) in physiological salt solution (PSS) (containing 5.9 mM KCl, 1.4 mM MgCl2, 10 mM HEPES, 1.2 mM NaH2 PO4, 5 mM NaHCO3, 140 mM NaCl, 11.5 mM glucose, and 1.8 mM CaCl2, pH 7.4) with 0.1% BSA. As reported, for N-type calcium channel FLIPR assays the cells were pre-incubated with 10 µM nifedipine added in the dye to ensure full inhibition of L-type calcium responses. For L-type calcium channel FLIPR assays, the cells were pre-incubated with 1 µM CVID added in the dye to ensure full inhibition of N-type calcium responses. Positive control on the first reagent plate contained 15 μL of PSS (0.1% BSA), whereas PSS (0.1% BSA) containing 1 µM CVID and 10 µM nifedipine (final concentration) was used as a negative control. The fluorescence readings were recorded and converted as described previously, and agonist containing 90 mM KCl + 5 mM CaCl2 was used in the second addition.

[1] = target: T2, recombinant hCaV3.2 channels (Homo sapiens, UniProt O95180); assay: Whole-cell patch-clamp (QPatch), CaV3.2; type: cell-based; conditions: for extent of block of CaV3.2 whole-cell inward Ca2+ current: QPatch; for IC50: whole-cell current, holding potential −90 mV, n = 3–5
T2 construct: the only CaV3.2-expressing cells described
Experimental: as §1
Whole-cell patch-clamp experiments were performed on an automated electrophysiology platform QPatch 16 X (Sophion Bioscience A/S, Ballerup, Denmark) in single-hole configuration using 16-channel planar patch chip QPlates (Sophion Bioscience A/S). The extracellular recording solution contained, in mM: TEACl 157, MgCl2 0.5, CaCl2 5, and HEPES 10; pH 7.4 adjusted with TEAOH; and osmolarity 320 mOsm. The intracellular pipette solution contained, in mM: CsF 140, EGTA 1, HEPES 10, and NaCl 10; pH 7.2 adjusted with CsOH; and osmolarity 325 mOsm. Compounds were diluted in extracellular recording solution with 0.1% BSA at the concentrations stated (DMSO ≤ 0.1%), and the effects of compounds were compared to the control (extracellular solution with 0.1% BSA) parameters within the same cell. Compounds’ incubation time varied from two (for the highest concentration) to five (for the lowest concentration) minutes by applying the voltage protocol 10–30 times at 10 s intervals to ensure steady-state inhibition was achieved. The effects of compounds were obtained using 200 ms voltage steps to peak potential from a holding potential of −90 mV. Current–voltage (I–V) relationships were obtained by holding the cells at a potential of −100 mV before applying 50 ms pulses to potentials from −75 to +50 mV every 5 s in 5 mV increments. […]

[2] = system: voltage-gated calcium channels (VGCC); assay: VGCC FLIPR cell-based assays, all channels (overall observation); design: species or system human
Experimental: HEK 293 cells stably expressing CaV3.2 or CaV3.3 were seeded into 384-well black wall clear bottom plates (Corning) at a density of 30,000 cells per well. Transiently transfected CaV3.1HEK293 T cells were seeded into 384-well black wall clear bottom plates at a density of 60,000 cells per well. Once the cells reached 90–95% confluence after 24 h, the media were removed from the wells and replaced with 20 μL of 10% calcium 4 dye (Molecular Devices, Sunnyvale, CA, USA) in HBSS-HEPES (containing 5 mM KCl, 10 mM HEPES, 140 mM NaCl, 10 mM glucose, and 0.5 mM CaCl2, pH 7.4) with 0.1% bovine serum albumin (BSA). The cells were incubated for 30 min at 37 °C in the presence of 5% carbon dioxide. Each well on the reagent plates for the first addition contained 15 μL different concentrations of compounds dissolved in HBSS-HEPES containing 0.1% BSA and <0.5% DMSO and was incubated for 20 min after loaded. Positive and negative controls contained 15 μL of HBSS-HEPES (0.1% BSA) alone. The plates were placed in the FLIPR^TETRA (Molecular Devices, Sunnyvale, CA, USA) programmed to measure maximum fluorescence intensity following a second addition of the agonist 5 mM CaCl2. The fluorescence readings were recorded and converted as described previously, and HBSS-HEPES (0.1% BSA) was used in the second addition as a negative control.
as §2

T2 sequence (O95180 whole entry): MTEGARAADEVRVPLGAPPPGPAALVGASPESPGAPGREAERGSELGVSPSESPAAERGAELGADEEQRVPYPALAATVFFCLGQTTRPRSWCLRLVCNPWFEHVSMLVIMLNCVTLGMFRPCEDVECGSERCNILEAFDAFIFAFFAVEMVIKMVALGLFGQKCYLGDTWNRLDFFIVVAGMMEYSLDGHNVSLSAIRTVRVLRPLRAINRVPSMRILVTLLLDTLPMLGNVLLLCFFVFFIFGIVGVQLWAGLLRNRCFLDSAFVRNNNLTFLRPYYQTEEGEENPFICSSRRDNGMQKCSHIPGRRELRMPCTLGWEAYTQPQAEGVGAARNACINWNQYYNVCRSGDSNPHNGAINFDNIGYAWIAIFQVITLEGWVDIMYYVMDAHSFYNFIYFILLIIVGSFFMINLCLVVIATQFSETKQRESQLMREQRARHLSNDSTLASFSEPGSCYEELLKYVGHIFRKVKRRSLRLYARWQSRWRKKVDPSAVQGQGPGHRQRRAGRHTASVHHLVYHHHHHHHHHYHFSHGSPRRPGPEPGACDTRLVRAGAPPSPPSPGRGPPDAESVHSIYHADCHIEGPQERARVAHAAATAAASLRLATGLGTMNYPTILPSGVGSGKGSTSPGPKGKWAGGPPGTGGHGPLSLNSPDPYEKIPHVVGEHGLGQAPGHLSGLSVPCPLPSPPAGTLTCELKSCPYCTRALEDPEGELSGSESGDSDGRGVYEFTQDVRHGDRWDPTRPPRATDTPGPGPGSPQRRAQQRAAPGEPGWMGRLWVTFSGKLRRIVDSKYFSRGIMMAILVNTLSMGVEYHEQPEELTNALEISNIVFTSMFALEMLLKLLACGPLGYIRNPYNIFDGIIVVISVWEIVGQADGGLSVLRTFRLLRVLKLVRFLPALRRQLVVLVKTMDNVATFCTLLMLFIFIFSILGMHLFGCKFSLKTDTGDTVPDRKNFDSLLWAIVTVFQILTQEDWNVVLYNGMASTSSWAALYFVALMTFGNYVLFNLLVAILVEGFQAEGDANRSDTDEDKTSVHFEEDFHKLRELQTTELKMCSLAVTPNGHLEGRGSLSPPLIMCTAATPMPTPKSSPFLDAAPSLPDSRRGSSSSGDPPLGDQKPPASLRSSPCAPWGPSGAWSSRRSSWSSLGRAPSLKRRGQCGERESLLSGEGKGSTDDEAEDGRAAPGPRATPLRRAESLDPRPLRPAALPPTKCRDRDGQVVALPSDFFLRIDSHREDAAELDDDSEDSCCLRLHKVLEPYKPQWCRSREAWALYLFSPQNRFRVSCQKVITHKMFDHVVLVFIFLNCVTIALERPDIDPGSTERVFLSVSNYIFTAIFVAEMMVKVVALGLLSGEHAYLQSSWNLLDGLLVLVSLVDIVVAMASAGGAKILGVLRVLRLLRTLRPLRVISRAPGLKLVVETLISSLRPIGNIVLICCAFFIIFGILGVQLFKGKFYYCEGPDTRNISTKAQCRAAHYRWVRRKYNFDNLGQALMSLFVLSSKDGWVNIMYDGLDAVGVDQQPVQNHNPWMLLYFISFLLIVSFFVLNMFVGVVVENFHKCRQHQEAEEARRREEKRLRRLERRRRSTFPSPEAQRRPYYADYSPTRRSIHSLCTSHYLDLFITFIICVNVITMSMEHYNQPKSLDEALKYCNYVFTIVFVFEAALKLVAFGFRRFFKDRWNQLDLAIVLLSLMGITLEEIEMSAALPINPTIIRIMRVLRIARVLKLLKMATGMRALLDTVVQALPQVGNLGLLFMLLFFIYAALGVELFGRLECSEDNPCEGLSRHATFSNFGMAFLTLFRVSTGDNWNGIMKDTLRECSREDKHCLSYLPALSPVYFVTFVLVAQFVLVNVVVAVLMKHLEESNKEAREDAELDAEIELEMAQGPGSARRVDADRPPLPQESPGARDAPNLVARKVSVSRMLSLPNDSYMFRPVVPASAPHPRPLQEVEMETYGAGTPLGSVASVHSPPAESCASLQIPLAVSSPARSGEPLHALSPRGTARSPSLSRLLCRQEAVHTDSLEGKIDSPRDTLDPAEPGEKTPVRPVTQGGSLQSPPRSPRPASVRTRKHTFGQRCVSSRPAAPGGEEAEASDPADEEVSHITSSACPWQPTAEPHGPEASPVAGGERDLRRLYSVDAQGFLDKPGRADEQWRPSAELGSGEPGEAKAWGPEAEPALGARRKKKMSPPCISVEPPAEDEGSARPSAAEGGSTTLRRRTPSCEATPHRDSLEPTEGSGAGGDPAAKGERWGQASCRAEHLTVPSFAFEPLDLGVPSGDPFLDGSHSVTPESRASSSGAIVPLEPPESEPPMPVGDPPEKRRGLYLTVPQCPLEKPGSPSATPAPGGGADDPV

## O=C(c1cn(Cc2ccccc2)c2ccccc12)c1cn(Cc2ccccc2)c2ccccc12 [IX, bis(1-benzyl-1H-indol-3-yl)methanone]
CaV2.2
  IC50: 82 ± 5.3 µM
[1]
  extent of block of CaV3.2 whole-cell inward Ca2+ current: partially blocked; also recorded: only partial inhibition
  IC50: 2.97 ± 0.29 µM

## O=C(c1c[nH]c2cc(Br)ccc12)c1c[nH]c2cc(Br)ccc12 [IV]
CaV2.2
  IC50: > 200 µM
[2]
  inhibition of all the Ca2+ responses: poor inhibition

## c1ccc2c(Cc3c[nH]c4ccccc34)c[nH]c2c1 [DIM, 3,3′-diindolylmethane, reference compound]
CaV2.2
  IC50: 56.7 ± 2.61 µM
[1]
  IC50: 21.1 ± 1.19 µM

## O=C(c1c[nH]c2ccccc12)c1c[nH]c2ccccc12 [DIM-one, 3,3′-diindolylmethanone]
CaV2.2
  IC50: 119 ± 6.51 µM
[1]
  extent of block of CaV3.2 whole-cell inward Ca2+ current: poor inhibition
  IC50: ~50 µM
